Converted amounts (≈) assume the structure as drawn. Like-named read-outs stand apart in the source and are kept apart here.
Legend:
E. coli ATCC 25922 = experiment: MIC, NCCLS broth microdilution assay; format: cell-based, Escherichia coli; settings: for MIC: Escherichia coli
S. aureus ATCC 13709 = experiment: MIC, NCCLS broth microdilution assay; format: cell-based, Staphylococcus aureus; settings: for MIC: Staphylococcus aureus, ATCC 13709 / MSSA, read-out: Minimum Inhibitory Concentration (MIC)
C. albicans ATCC 38247 = experiment: MIC, antifungal assay; format: cell-based, Candida albicans; settings: for MIC: Candida albicans
S. pneumoniae ATCC 49619 = experiment: MIC, NCCLS broth microdilution assay; format: cell-based, Streptococcus pneumoniae; settings: for MIC: Streptococcus pneumoniae
S. aureus ATCC 27660 = experiment: MIC, NCCLS broth microdilution assay; format: cell-based, Staphylococcus aureus; settings: for MIC: Staphylococcus aureus, ATCC 27660 / MRSA, read-out: Minimum Inhibitory Concentration (MIC)
Text: (§1) In vitro biological activity data were collected for a variety of microorganisms, including Bacillus cereus (ATCC 11778), Staphylococcus aureus (ATCC 33591; ATCC 27660, a methicillin resistant strain (MRSA); ATCC 13709, a methicillin sensitive strain (MSSA)), Escherichia coli (ATCC 25922), Enterococcus faecalis (ATCC 29212), Streptococcus pneumoniae (ATCC 49619; ATCC 51422, a penicillin resistant strain (PRSP)), Enterococcus faecium (ATCC 51559, a vancomycin resistant strain (VRE)), and Staphylococcus epidermidis (ATCC 12228).
(§2) The minimal inhibition concentration (MIC) of these compounds was determined using the National Committee for Clinical Laboratory Standards (NCCLS) broth microdilution assay in microtiter plates, as set forth in: (1) the guidelines of the National Committee for Clinical Laboratory Standards (NCCLS) Document M7-A4 (NCCLS, 1997); (2) the guidelines of the National Committee for Clinical Laboratory Standards (NCCLS) Document M11-A4 (NCCLS, 1997); and (3) the guidelines and reference method of the National Committee for Clinical Laboratory Standards (NCCLS) Document M27 -T (NCCLS, 1995).

B. cereus ATCC 11778 = experiment: MIC, NCCLS broth microdilution assay; format: cell-based, Bacillus cereus; settings: for MIC: Bacillus cereus
E. faecalis ATCC 29212 = experiment: MIC, NCCLS broth microdilution assay; format: cell-based, Enterococcus faecalis; settings: for MIC: Enterococcus faecalis
S. aureus ATCC 33591 = experiment: MIC, NCCLS broth microdilution assay; format: cell-based, Staphylococcus aureus; settings: for MIC: Staphylococcus aureus
Text: as §1, §2

[1] = S. aureus ATCC 13709, methicillin sensitive strain (MSSA)
[2] = S. aureus ATCC 27660, methicillin resistant strain (MRSA)

Row | SMILES | Minimum Inhibitory Concentration (MIC) (E. coli ATCC 25922; E. coli ATCC 25922) | Minimum Inhibitory Concentration (MIC) (S. aureus ATCC 13709; [1]) | Minimum Inhibitory Concentration (MIC) (C. albicans ATCC 38247; C. albicans ATCC 38247) | Minimum Inhibitory Concentration (MIC) (S. pneumoniae ATCC 49619; S. pneumoniae ATCC 49619) | Minimum Inhibitory Concentration (MIC) (S. aureus ATCC 27660; [2]) | Minimum Inhibitory Concentration (MIC) (B. cereus ATCC 11778; B. cereus ATCC 11778) | Minimum Inhibitory Concentration (MIC) (E. faecalis ATCC 29212; E. faecalis ATCC 29212) | Minimum Inhibitory Concentration (MIC) (S. aureus ATCC 33591; S. aureus ATCC 33591) | further results
1 | Cc1cc(NC(=O)c2cccnc2NCCN2CCNCC2)ccc1-c1cc2ccccc2o1 [Compound A-28] | >32 µg/mL | ++ (4 < MIC < 12) | + (12 ≦ MIC ≦ 32) | + (12 ≦ MIC ≦ 32) | ++ (4 < MIC < 12) | + (12 ≦ MIC ≦ 32) | ++ (4 < MIC < 12) | ++ (4 < MIC < 12) | 
2 | Cc1cc(NC(=O)c2cccnc2NCCCCN)ccc1-c1cc2ccccc2o1 [Compound A-29] | >32 µg/mL | +++ (MIC ≦ 4) | + (12 ≦ MIC ≦ 32) | + (12 ≦ MIC ≦ 32) | +++ (MIC ≦ 4) | +++ (MIC ≦ 4) | +++ (MIC ≦ 4) | +++ (MIC ≦ 4) | 
3 | Cc1cc(NC(=O)c2cccnc2NCCCN(C)C)ccc1-c1cc2ccccc2o1 [Compound A-30] | >32 µg/mL | +++ (MIC ≦ 4) | + (12 ≦ MIC ≦ 32) | + (12 ≦ MIC ≦ 32) | +++ (MIC ≦ 4) | ++ (4 < MIC < 12) | +++ (MIC ≦ 4) | +++ (MIC ≦ 4) | 
4 | O=C(Nc1ccc(-c2cc3ccccc3o2)nc1)c1nsc(NCCN2CCNCC2)c1Cl [Compound A-35] | >32 µg/mL | + (12 ≦ MIC ≦ 32) | +++ (MIC ≦ 4) | >32 µg/mL | + (12 ≦ MIC ≦ 32) | >32 µg/mL | + (12 ≦ MIC ≦ 32) | >32 µg/mL | 
5 | CN(C)CCCNc1snc(C(=O)Nc2ccc(-c3cc4ccccc4o3)nc2)c1Cl [Compound A-36] | >32 µg/mL | +++ (MIC ≦ 4) | ++ (4 < MIC < 12) | + (12 ≦ MIC ≦ 32) | + (12 ≦ MIC ≦ 32) | ++ (4 < MIC < 12) | ++ (4 < MIC < 12) | ++ (4 < MIC < 12) | 
6 | NCCCCNc1snc(C(=O)Nc2ccc(-c3cc4ccccc4o3)nc2)c1Cl [Compound A-37] | >32 µg/mL | +++ (MIC ≦ 4) | + (12 ≦ MIC ≦ 32) | >32 µg/mL | +++ (MIC ≦ 4) | >32 µg/mL | ++ (4 < MIC < 12) | ++ (4 < MIC < 12) | 
7 | NCCNc1snc(C(=O)Nc2ccc(-c3cc4ccccc4o3)nc2)c1Cl [Compound A-38] | >32 µg/mL | +++ (MIC ≦ 4) | + (12 ≦ MIC ≦ 32) | >32 µg/mL | +++ (MIC ≦ 4) | +++ (MIC ≦ 4) | +++ (MIC ≦ 4) | +++ (MIC ≦ 4) | 
8 | CN(CCCN)CCCNc1ncccc1C(=O)Nc1ccc(-c2cc3ccccc3o2)nc1 [Compound A-39] |  |  |  |  |  |  |  |  | MIC (E. coli ATCC 25922; ATCC25922, E. coli ATCC 25922, read-out: Minimum Inhibitory Concentration (MIC)): > 32 µg/mL; MIC (S. aureus ATCC 13709; [1]): 12 to 32 µg/mL (≈ 26.2 to 69.8 µM); MIC (C. albicans ATCC 38247; ATCC38247, C. albicans ATCC 38247, read-out: Minimum Inhibitory Concentration (MIC)): > 32 µg/mL; MIC (S. pneumoniae ATCC 49619; ATCC49619, S. pneumoniae ATCC 49619, read-out: Minimum Inhibitory Concentration (MIC)): 12 to 32 µg/mL (≈ 26.2 to 69.8 µM); MIC (S. aureus ATCC 27660; [2]): 12 to 32 µg/mL (≈ 26.2 to 69.8 µM); MIC (B. cereus ATCC 11778; ATCC11778, B. cereus ATCC 11778, read-out: Minimum Inhibitory Concentration (MIC)): 12 to 32 µg/mL (≈ 26.2 to 69.8 µM); MIC (E. faecalis ATCC 29212; ATCC29212, E. faecalis ATCC 29212, read-out: Minimum Inhibitory Concentration (MIC)): 12 to 32 µg/mL (≈ 26.2 to 69.8 µM); MIC (S. aureus ATCC 33591; ATCC33591, S. aureus ATCC 33591, read-out: Minimum Inhibitory Concentration (MIC)): 12 to 32 µg/mL (≈ 26.2 to 69.8 µM)
9 | NCCNc1ncccc1C(=O)Nc1ccc(-c2cc3ccccc3o2)nc1 [Compound A-40] | + (12 ≦ MIC ≦ 32) | ++ (4 < MIC < 12) | + (12 ≦ MIC ≦ 32) | >32 µg/mL | ++ (4 < MIC < 12) | + (12 ≦ MIC ≦ 32) | ++ (4 < MIC < 12) | + (12 ≦ MIC ≦ 32) | 
10 | CN(CCCN)CCCNc1cc(Cl)ccc1C(=O)Nc1ccc(-c2cc3ccccc3o2)nc1 [Compound A-41] | ++ (4 < MIC < 12) | +++ (MIC ≦ 4) | ++ (4 < MIC < 12) | + (12 ≦ MIC ≦ 32) | +++ (MIC ≦ 4) | ++ (4 < MIC < 12) | +++ (MIC ≦ 4) | +++ (MIC ≦ 4) | 
11 | O=C(Nc1ccc(-c2cc3ccccc3o2)nc1)c1ccc(Cl)cc1NCCN1CCCC1 [Compound A-43] | >32 µg/mL | ++ (4 < MIC < 12) | >32 µg/mL | + (12 ≦ MIC ≦ 32) | ++ (4 < MIC < 12) | ++ (4 < MIC < 12) | ++ (4 < MIC < 12) | ++ (4 < MIC < 12) | 
12 | CN(C)CCCNc1cc(Cl)ccc1C(=O)Nc1ccc(-c2cc3ccccc3o2)nc1 [Compound A-44] | >32 µg/mL | ++ (4 < MIC < 12) | ++ (4 < MIC < 12) | + (12 ≦ MIC ≦ 32) | ++ (4 < MIC < 12) | ++ (4 < MIC < 12) | ++ (4 < MIC < 12) | ++ (4 < MIC < 12) | 
13 | NCCNc1cc(Cl)ccc1C(=O)Nc1ccc(-c2cc3ccccc3o2)nc1 [Compound A-45] |  |  |  |  |  |  |  |  | MIC (E. coli ATCC 25922; ATCC25922, read-out: Minimum Inhibitory Concentration (MIC)): > 32 µg/mL; MIC (S. aureus ATCC 13709): < 4 µg/mL; MIC (C. albicans ATCC 38247; ATCC38247, read-out: Minimum Inhibitory Concentration (MIC)): 4 to 12 µg/mL (≈ 9.83 to 29.5 µM); MIC (S. pneumoniae ATCC 49619; ATCC49619, read-out: Minimum Inhibitory Concentration (MIC)): 12 to 32 µg/mL (≈ 29.5 to 78.6 µM); MIC (S. aureus ATCC 27660): < 4 µg/mL; MIC (B. cereus ATCC 11778; ATCC11778, read-out: Minimum Inhibitory Concentration (MIC)): 4 to 12 µg/mL (≈ 9.83 to 29.5 µM); MIC (E. faecalis ATCC 29212; ATCC29212, read-out: Minimum Inhibitory Concentration (MIC)): 4 to 12 µg/mL (≈ 9.83 to 29.5 µM); MIC (S. aureus ATCC 33591; ATCC33591, read-out: Minimum Inhibitory Concentration (MIC)): < 4 µg/mL
14 | O=C(Nc1ccc(-c2cc3ccccc3s2)cc1)c1nsc(NCCN2CCCC2)c1Cl [Compound A-46] | >32 µg/mL | + (12 ≦ MIC ≦ 32) | >32 µg/mL | >32 µg/mL | + (12 ≦ MIC ≦ 32) | >32 µg/mL | >32 µg/mL | >32 µg/mL | 
15 | O=C(Nc1ccc(-c2cc3ccccc3s2)cc1)c1cccnc1NCCN1CCNCC1 [Compound A-48] | >32 µg/mL | +++ (MIC ≦ 4) | >32 µg/mL | >32 µg/mL | +++ (MIC ≦ 4) | + (12 ≦ MIC ≦ 32) | >32 µg/mL | +++ (MIC ≦ 4) | 
16 | Cc1ccc2nc(-c3ccc(NC(=O)c4nsc(NCCCN(C)C)c4Cl)cc3)sc2c1 [Compound A-54] | >32 µg/mL | +++ (MIC ≦ 4) | +++ (MIC ≦ 4) | + (12 ≦ MIC ≦ 32) | +++ (MIC ≦ 4) | +++ (MIC ≦ 4) | +++ (MIC ≦ 4) | +++ (MIC ≦ 4) | 
17 | Cc1ccc2oc(-c3ccc(NC(=O)c4nsc(NCCCN(C)C)c4Cl)cc3)cc2n1 [Compound A-55] | >32 µg/mL | ++ (4 < MIC < 12) | ++ (4 < MIC < 12) | + (12 ≦ MIC ≦ 32) | ++ (4 < MIC < 12) | + (12 ≦ MIC ≦ 32) | + (12 ≦ MIC ≦ 32) | + (12 ≦ MIC ≦ 32) | 
